The target in data set [1] is GR from B. subtilis (Bacillus subtilis, UniProt P94556).
Data set [2] relates to GR from B. anthracis (RacE1). Format: biochemical. The settings on record: RacE1, Figure 1.
Data set [3] deals with GR from F. tularensis (MurI). It counts as biochemical. Conditions: Figure 1.
Data set [4] relates to B. subtilis DB104. Put plainly: Inhibition of bacterial growth. Conditions: Bacillus subtilis, DB104, 24 h, read-out: MIC50 B. subtilis.
Data set [5] concerns GR from B. anthracis (RacE2). Format: biochemical. Conditions: RacE2, Figure 1.

Molecules are shown by their SMILES. Converted amounts (≈) assume the structure as drawn.

These results are taken from publication PMC4040332 (ChemMedChem, 2013).

For orientation: MIC50 means an inhibitory concentration at the 50% level, which refers to growth in some studies and to a panel of isolates in others.

Chain of GR from B. subtilis (P94556 whole entry): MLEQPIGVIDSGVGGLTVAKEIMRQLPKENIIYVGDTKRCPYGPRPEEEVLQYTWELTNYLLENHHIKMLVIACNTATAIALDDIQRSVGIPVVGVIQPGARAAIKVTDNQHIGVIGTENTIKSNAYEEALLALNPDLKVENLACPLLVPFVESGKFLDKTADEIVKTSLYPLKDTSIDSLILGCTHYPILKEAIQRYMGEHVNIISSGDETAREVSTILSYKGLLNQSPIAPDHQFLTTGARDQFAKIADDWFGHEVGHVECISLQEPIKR

In the case of `O=S(=O)(O)c1nc2ccccc2[nH]1` [Compound 2, 1H-benzimidazole-2-sulfonic acid], the “LE (ligand efficiency)” value in data set [1] (Ki converted to binding energy, divided by number of non-hydrogen atoms) stood at 0.53 kcal/mol/atom. Further, in data set [1] (from log(Ki) and logP calculated with MarvinSketch), the “LiPE (lipophilic efficiency)” value is given as 5.3. The “potency compared with GR from B. subtilis” value in data set [2], in data set [3] and in data set [5] was “equal potency” in each case. Besides, in data set [4], the MIC50 was determined as 720 ± 60 µg/mL (≈ 3.63 mM).
